Data published in PubChem BioAssay (NCI).
“And” between values parts separate entries of the source, which are not always exact repeats. Equal entries are not always repeated.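 96-well plates; 48 h exposure; 5 concentrations. Endpoints by linear interpolation between flanking doses. Not reached: highest tested concentration assigned. GI50 is the concentration that inhibits growth by half. At the TGI there is no net growth.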

Assays:
Experiment in all cases: DTP human tumour cell line panel, 48 h
A549 NSCLC = test system: A549 NSCLC
ACHN renal = test system: ACHN renal
MOLT-4 leukemia = test system: MOLT-4 leukemia
NCI-H226 lung = test system: NCI-H226 lung
NCI-H460 lung = test system: NCI-H460 lung
OVCAR-8 ovarian = test system: OVCAR-8 ovarian
UACC-257 melanoma = test system: UACC-257 melanoma
UACC-62 melanoma = test system: UACC-62 melanoma
NCI/ADR-RES ovarian = test system: NCI/ADR-RES ovarian
RPMI-8226 leukemia = test system: RPMI-8226 leukemia

## COC(=O)c1cccn1C(=O)n1cccc1
A549 NSCLC
  TGI: > 100 µM
ACHN renal
  TGI: > 100 µM
MOLT-4 leukemia
  TGI: > 100 µM
NCI-H226 lung
  TGI: > 100 µM
NCI-H460 lung
  TGI: > 100 µM
OVCAR-8 ovarian
  TGI: > 100 µM
UACC-257 melanoma
  TGI: > 100 µM
UACC-62 melanoma
  TGI: > 100 µM

## COc1cc(C(=O)N2CCN(c3ncnc4ccccc34)CC2)c(N)cc1OCc1ccccc1
A549 NSCLC
  GI50: 16.5 µM
  TGI: 50.5 µM
ACHN renal
  GI50: 14 µM
  TGI: 37.6 µM
MOLT-4 leukemia
  GI50: 8.55 µM
  TGI: 40.4 µM
NCI-H226 lung
  GI50: 16.1 µM
  TGI: 33.3 µM
NCI-H460 lung
  GI50: 11.3 µM
  TGI: 26.1 µM
NCI/ADR-RES ovarian
  GI50: 16.1 µM
  TGI: 35.1 µM
RPMI-8226 leukemia
  GI50: 14 µM
  TGI: 47.8 µM
UACC-257 melanoma
  GI50: 21.7 µM
  TGI: 48.5 µM
UACC-62 melanoma
  GI50: 12 µM
  TGI: 24.3 µM

## Nc1nnnn1CCO
A549 NSCLC
  TGI: > 100 µM
ACHN renal
  TGI: > 100 µM
NCI-H226 lung
  TGI: > 100 µM
NCI-H460 lung
  TGI: > 100 µM
NCI/ADR-RES ovarian
  TGI: > 100 µM
OVCAR-8 ovarian
  TGI: > 100 µM
RPMI-8226 leukemia
  TGI: > 100 µM
UACC-257 melanoma
  TGI: > 100 µM
UACC-62 melanoma
  TGI: > 100 µM

## O=C(CCN1CCN(c2ccccc2)CC1)N1CCc2c([nH]c3ccccc23)C1c1cccnc1 (configuration not stated)
A549 NSCLC
  TGI: 29.7 µM
ACHN renal
  TGI: 40 µM
MOLT-4 leukemia
  TGI: 51.1 µM
NCI-H226 lung
  TGI: 71.9 µM
NCI-H460 lung
  TGI: 34.4 µM
OVCAR-8 ovarian
  TGI: 30.4 µM
UACC-257 melanoma
  TGI: 31.5 µM

## CC(=O)OC[C@@H](COC(=O)/C=C/c1ccc(O)cc1)OC1OC(CO)C(O)C(O)C1O (some centres not stated)
A549 NSCLC
  TGI: > 100 µM
ACHN renal
  TGI: > 100 µM
MOLT-4 leukemia
  TGI: > 100 µM
NCI-H226 lung
  TGI: > 100 µM
NCI-H460 lung
  TGI: > 100 µM
OVCAR-8 ovarian
  TGI: > 100 µM
RPMI-8226 leukemia
  TGI: > 100 µM
UACC-257 melanoma
  TGI: > 100 µM
UACC-62 melanoma
  TGI: > 100 µM

## CCOC(=O)N1CCC(=O)C(CNC23CC4CC(CC(C4)C2)C3)C1 (configuration not stated)
A549 NSCLC
  TGI: > 100 µM
ACHN renal
  TGI: 34.8 µM
MOLT-4 leukemia
  TGI: 38.9 µM
NCI-H226 lung
  TGI: > 100 µM
NCI-H460 lung
  TGI: > 100 µM
OVCAR-8 ovarian
  TGI: 44.5 µM
UACC-257 melanoma
  TGI: 42.4 µM
UACC-62 melanoma
  TGI: > 100 µM

## CC(=O)C1C(c2ccc(N(C)C)cc2)c2cc3c(cc2OC1(C)O)OCO3 (configuration not stated)
A549 NSCLC
  TGI: > 100 µM
ACHN renal
  TGI: > 100 µM
MOLT-4 leukemia
  TGI: > 100 µM
NCI-H460 lung
  TGI: > 100 µM
OVCAR-8 ovarian
  TGI: > 100 µM
RPMI-8226 leukemia
  TGI: 83.2 µM
UACC-257 melanoma
  TGI: > 100 µM
UACC-62 melanoma
  TGI: > 100 µM

## COc1ccc2ccccc2c1C1NC(=O)c2ccccc2N1 (configuration not stated)
A549 NSCLC
  TGI: > 51.8 µM
ACHN renal
  TGI: > 84.5 µM
MOLT-4 leukemia
  TGI: 9.2 µM
NCI-H226 lung
  TGI: 13.4 µM
NCI-H460 lung
  TGI: 29.6 µM
NCI/ADR-RES ovarian
  TGI: 3.02 µM
OVCAR-8 ovarian
  TGI: 31.8 µM
RPMI-8226 leukemia
  TGI: 8.06 µM
UACC-257 melanoma
  TGI: > 100 µM

## O=C(c1ccccc1)C1OC12C(=O)Nc1c(Cl)cc(Cl)cc12 (configuration not stated)
A549 NSCLC
  TGI: > 100 µM
ACHN renal
  TGI: > 85.1 µM
MOLT-4 leukemia
  TGI: 31 µM
NCI-H226 lung
  TGI: > 100 µM
NCI-H460 lung
  TGI: > 100 µM
OVCAR-8 ovarian
  TGI: 51.1 µM
RPMI-8226 leukemia
  TGI: > 100 µM
UACC-257 melanoma
  TGI: > 100 µM
UACC-62 melanoma
  TGI: > 100 µM

## O=C(Nc1ccc(Cl)c(Cl)c1)Nc1c(Oc2ccc(Cl)c(Cl)c2)ccc(Cl)c1S(=O)(=O)O
A549 NSCLC
  GI50: 3.53 µM
  TGI: > 100 µM
MOLT-4 leukemia
  GI50: 4.1 µM
  TGI: > 100 µM
NCI-H226 lung
  GI50: 3.91 µM
  TGI: > 100 µM
NCI-H460 lung
  GI50: 3.01 µM
  TGI: > 100 µM
NCI/ADR-RES ovarian
  GI50: 0.959 µM
  TGI: > 100 µM
OVCAR-8 ovarian
  GI50: 3.7 µM
  TGI: > 100 µM
RPMI-8226 leukemia
  GI50: 2.91 µM
  TGI: > 100 µM
UACC-62 melanoma
  GI50: 1.97 µM
  TGI: > 100 µM

## CCC/C(=N\NC(=S)N1CC2CCC(CC2)C1)c1ccccn1
A549 NSCLC
  GI50: 0.122 µM
  TGI: 5.23 µM and 2.01 µM
ACHN renal
  GI50: 0.0808 µM
  TGI: 2.72 µM and 2.09 µM
NCI-H226 lung
  GI50: 1.13 µM
  TGI: 4.79 µM and 2.58 µM
NCI-H460 lung
  TGI: 0.927 µM
OVCAR-8 ovarian
  TGI: 2.82 µM and 2.1 µM
UACC-257 melanoma
  TGI: 0.197 µM and 1.35 µM
UACC-62 melanoma
  GI50: 0.0329 µM
  TGI: 1.14 µM and 0.642 µM
